Measurements reported in US20240288446A1, “METHOD FOR DIAGNOSING FIBRINOLYTIC INSUFFICIENCY RELATED TO NEUTROPHIL EXTRACELLULAR TRAPS” (Hôpitaux Universitaires de Strasbourg, priority 2019, published 2024).
Entries after “also recorded” stand apart in the source; their conditions may differ.

What was measured:
Assay type in all cases: biochemical
[1] = target: T1, HNE-DNA complexes of NETs (Homo sapiens, UniProt P08246); assay: Activity of DNA-bound elastase on NETs, chromogenic substrate MeO-Suc-AAPV-pNA; conditions: NETs from PMA-stimulated neutrophils, MeO-Suc-AAPV-CMK 100 μM, α1-PI 10 μM, aprotinin 10 μM (FIG. 1B legend)
T1 construct: endogenous in cells
T1 sequence (P08246 30-247 limits assumed): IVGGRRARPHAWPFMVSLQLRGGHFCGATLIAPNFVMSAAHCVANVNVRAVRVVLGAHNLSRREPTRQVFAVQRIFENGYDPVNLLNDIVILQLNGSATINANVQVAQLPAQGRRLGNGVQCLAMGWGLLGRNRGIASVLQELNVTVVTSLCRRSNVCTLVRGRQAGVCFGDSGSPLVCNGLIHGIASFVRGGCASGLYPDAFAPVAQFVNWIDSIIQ
Description: FIGS. 1A-C represent Neutrophil Extracellular Traps (NETs) generated from neutrophils seeded onto a fibrin matrix: DNA and HNE activity of NETs are shown. Neutrophils isolated from human blood and seeded on wells of a 96-wells microtiter plate containing or not a fibrin matrix, were activated by 50 nM PMA in HBSS. After 4 hours incubation at 37° C. in a humidified 5% CO2 incubator, the plate was centrifuged at 3000 g for 5 min, the supernatant was collected and cells and NETs in the well stained with a 10 μg/ml solution of Hoechst 33342 a minor-groove DNA binder. Elastase activity bound to NETs was detected with the chromogenic substrate N-methoxysuccinyl-Ala-Ala-Pro-Val-p-nitroanilide. FIG. 1A represents fluorescence microscopy images (X20) of nuclei and extracellular DNA fibers stained with Hoechst. Scale bars: 20 μm. […] NETs: neutrophil extracellular traps generated in the absence of fibrin. […] C. […] Purified HNE was incubated (15 min) at different concentrations in buffer or plasma before activity measurements with 1.5 mM of the chromogenic substrate N-methoxysuccinyl-Ala-Ala-Pro-Val-p-nitroanilide.
NETs were identified by (1) DNA staining with a 10 μg/ml solution of Hoechst 33342 and (2) measuring the activity of DNA-bound elastase.
To detect elastase bound to NETs, the substrate MeO-Suc-AAPV-pNA (100 μl per well, 1.5 mM final concentration in HBSS) was incubated with NETs after two gentle washes with HBSS. DNA-bound HNE activity was detected in a multi-well plate counter at 37° C. by measuring the release of p-nitroaniline (pNA) at A405 nm.

[2] = target: T1, HNE-DNA complexes of NETs; assay: Plasminogen fragmentation by NETs-bound elastase (SDS-PAGE, Western blot); conditions: plasminogen 1 μM; NETs pre-incubated with inhibitor
Description: FIGS. 2A-C represent NETs-associated elastase digests plasminogen into fragments. Samples were analyzed by SDS-PAGE and Western blot using a specific sheep antibody directed against human plasminogen. FIG. 2A-B. Plasminogen fragmentation by NETs HNE•DNA complexes after 30 to 240 min (A) and 2 to 10 hours (B) of incubation. C. Western blot of purified plasminogen (Pg), plasmin (Pn) (left panel) and HNE-DNA-derived plasminogen fragments (middle panel). Plasminogen fragments produced by PMA stimulated neutrophils (middle panel) were not observed (right panel) in the presence of the elastase-specific inhibitor (EI) N-Methoxysuccinyl-Ala-Ala-Pro-Val-chloromethyl ketone.
Fibrin-NETs matrices were achieved by activation with PMA of neutrophils seeded onto fibrin surfaces prepared as described above. The neutrophils were seeded onto the fibrin matrix at 200 000 cells per well and were stimulated with PMA after 1 h plating as indicated above. […] Initial velocities of the reaction were calculated using an ad hoc computer program. • 2. […] HNE activity in samples collected in HBSS was measured with the chromogenic substrate MeO-Suc-AAPV-pNA (100 μl per well, 1.5 mM final concentration in HBSS) as indicated above. […] Signal was detected using the ECL kit from Amersham (Arlington Heights, U.K.) and the Curix-60-AGFA for development. […]

[3] = target: T2, HNE-DNA complexes of fibrin-NETs lattice (Homo sapiens, UniProt P08246); assay: Plasminogen activation by fibrin-bound tPA on fibrin-NETs matrices (plasmin formation)
T2 construct: endogenous in cells
T2 sequence (P08246 30-247 limits assumed): T1 sequence (P08246 30-247 limits assumed)
Description: FIGS. 3A-D represent the decrease in tPA-mediated plasmin formation by NETs formed onto fibrin. Neutrophils isolated from human blood were seeded onto fibrin in a 96-wells microtitre plate and activated by 50 nM PMA in HBSS. After binding of tPA to fibrin, plasminogen at varying concentrations was added to the interlaced NETs-fibrin structure. FIG. 3A-B. Plasmin formation from plasminogen (Pg) at 50 nM (A) and 500 nM (B) was monitored by measuring the released of pNA the plasmin-selective chromogenic substrate at 0.75 mM. Plasmin formation on fibrin. ● Plasmin formation on fibrin-NETs. ▪ Plasmin formation on fibrin-NETs treated with the elastase inhibitor MeO-Suc-AAPV-CMK. FIG. 3 C. After plasminogen activation the wells were carefully washed and the amount of fibrin-bound plasmin detected by adding 0.75 mM of the plasmin-selective chromogenic substrate. Grey bars: plasmin bound to the fibrin-NETs surface. […]
Fibrin-NETs matrices were achieved by activation with PMA of neutrophils seeded onto fibrin surfaces prepared as described above. […] Initial velocities of the reaction were calculated using an ad hoc computer program. • 2. […] HNE activity in samples collected in HBSS was measured with the chromogenic substrate MeO-Suc-AAPV-pNA (100 μl per well, 1.5 mM final concentration in HBSS) as indicated above. […]

| Substance | effect on proteolytic activity of HNE-DNA complexes of NETs [1] | effect on proteolytic activity of HNE-DNA complexes of NETs ([1]; listed as aprotinin) | effect on conversion of plasminogen into fragments by NETs [2] | decrease of plasmin formed and remaining bound to untreated fibrin-NETs lattices compared with lattices in the presence of inhibitor ([3]; FIG. 3C) | plasmin formation / fibrinolytic activity at the fibrin-NET lattice ([3]; fibrin-NET lattice pre-incubated with inhibitor, tPA bound to fibrin) |
| --- | --- | --- | --- | --- | --- |
| Aprotinin | without effect | unable to modify | unable to modify | – | – |
| N-(Methoxysuccinyl)-L-alanyl-L-alanyl-L-prolyl-L-valine chloromethylketone [MeO-Suc-AAPV-CMK] | completely blocked; also recorded: completely inhibited | – | abolished the conversion of plasminogen into fragments; also recorded: plasminogen fragments were absent | around 50% | restored to control values |
